Consider 17 molecules from patent US10364256B2 (GlaxoSmithKline Intellectual Property Development Limited, priority 2015, dated 2019).

Like-named read-outs stand apart in the source and are kept apart here.

Experiment [1] concerns NQO1 specific enzyme activity in BEAS-2B cells (marker for NRF2 activation). The experiment can be described thus: BEAS-2B NQO1 MTT Assay. The experiment is classed as cell-based. The settings on record: Homo sapiens, compound incubated 48 hours, read-out: EC50 (NQO1 specific enzyme activity induction). In short, it runs like this:
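BEAS-2B cells treated with compound for 48 h at 37 °C, then lysed; NQO1 activity in lysates measured kinetically by MTT reduction at A570 over 30 min. pEC50 from 3-parameter fit of ΔOD/min versus log concentration; lysate also taken for Cell Titer Glo.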

Experiment [2] concerns the target T1, full length Keap1 protein / full length NRF2 protein (Homo sapiens, UniProt Q14145).
T1 construct: full length NRF2 protein and full length Keap1 protein (Keap1 exists a dimer) are used; His
The experiment can be described thus: NRF2-Keap1 TR-FRET Low Protein Assay. The format is binding. The conditions noted are these: 1.25 nM Keap1 FlagHis and 2.5 nM biotin-NRF2 added. In short, it runs like this:
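Flag-tagged full-length Keap1 was preincubated with compound (3-fold series) for 2.25 h at 37 °C in Tris pH 8.0/MgCl2/NaCl/BSA/DTT/CHAPS. Biotin-Avi-NRF2 (added at 2.5 nM) was then bound for 1.25 h at 4 °C. Eu-streptavidin/anti-Flag-APC TR-FRET (665/615 nm) was read after 1 h at RT, and pIC50 came from a four-parameter fit.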

T1 sequence (Q14145 whole entry): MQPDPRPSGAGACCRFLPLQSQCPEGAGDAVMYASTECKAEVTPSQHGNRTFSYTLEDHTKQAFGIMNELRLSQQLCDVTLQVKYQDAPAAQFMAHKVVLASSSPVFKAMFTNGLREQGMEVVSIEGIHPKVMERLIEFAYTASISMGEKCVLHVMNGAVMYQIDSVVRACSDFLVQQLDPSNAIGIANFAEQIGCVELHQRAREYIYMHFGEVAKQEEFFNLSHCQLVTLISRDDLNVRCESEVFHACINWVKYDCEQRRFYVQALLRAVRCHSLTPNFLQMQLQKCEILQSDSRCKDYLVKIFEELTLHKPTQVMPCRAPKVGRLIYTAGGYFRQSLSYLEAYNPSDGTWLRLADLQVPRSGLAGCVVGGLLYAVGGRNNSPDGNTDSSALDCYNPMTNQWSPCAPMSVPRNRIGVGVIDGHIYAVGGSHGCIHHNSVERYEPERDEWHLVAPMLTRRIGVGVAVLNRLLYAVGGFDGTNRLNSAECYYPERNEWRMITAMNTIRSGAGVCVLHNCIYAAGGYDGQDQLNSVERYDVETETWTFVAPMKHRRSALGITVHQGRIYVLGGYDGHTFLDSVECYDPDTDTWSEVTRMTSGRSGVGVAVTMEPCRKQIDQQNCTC

What is called EC50 is the concentration needed to bring the measured effect to its halfway point. As a reminder, the IC50 is the point on the concentration scale where inhibition reaches its midpoint. Low readings indicate greater potency in that assay, high ones weaker potency in that assay. Consider `Cn1cc(C2CC2c2c(C(=O)O)cnn2-c2cccc(-c3cccc(OCC4CCN(C(=O)OC(C)(C)C)CC4)c3)c2)nn1` (stereo not shown) [Example 167, 1-(3′-((1-(tert-Butoxycarbonyl)piperidin-4-yl)methoxy)-[1,1′-biphenyl]-3-yl)-5-(2-(1-methyl-1H-1,2,3-triazol-4-yl)cyclopropyl)-1H-pyrazole-4-carboxylic acid], for which, in experiment [1], the EC50 was in the range of 100 to 1000 nM. This molecule showed an IC50 in experiment [2] of 10 to 100 nM.

Take `CCCC1(C)CCc2cnn(-c3cccc(-c4cccc(-n5ncc(C(=O)O)c5C5CC5)c4)c3)c21` (stereo not shown) [Example 205, 5-Cyclopropyl-1-(3′-(6-methyl-6-propyl-5,6-dihydrocyclopenta[c]pyrazol-1(4H)-yl)-[1,1′-biphenyl]-3-yl)-1H-pyrazole-4-carboxylic Acid]: in experiment [1], the EC50 was in the range of 100 to 1000 nM. For the same molecule, in experiment [2], the IC50 was 10 to 100 nM.

For `CCC1CCC(COc2cccc(-c3cccc(-n4ncc(C(=O)O)c4[C@@H]4C[C@H]4c4cn(C)nn4)c3)c2)CC1` (mixture of isomers) [Example 150, 1-(3′-((4-Ethylcyclohexyl)methoxy)-[1,1′-biphenyl]-3-yl)-5-((1,2-trans)-2-(1-methyl-1H-1,2,3-triazol-4-yl)cyclopropyl)-1H-pyrazole-4-carboxylic acid], in experiment [1], the EC50 is 10 to 100 nM. The molecule further came in with an IC50 in experiment [2] of 10 to 100 nM.

Consider `Cn1cc([C@@H]2C[C@H]2c2c(C(=O)O)cnn2-c2cccc(-c3cccc(OCC4CCC(F)(F)CC4)c3)c2)nn1` (racemic) [Example 145, 1-(3′-((4,4-Difluorocyclohexyl)methoxy)-[1,1′-biphenyl]-3-yl)-5-((1,2-trans)-2-(1-methyl-1H-1,2,3-triazol-4-yl)cyclopropyl)-1H-pyrazole-4-carboxylic acid], for which, in experiment [1], the EC50 fell in the range of 100 to 1000 nM. In experiment [2], this molecule returned a half-maximal inhibitory concentration (IC50) of 10 to 100 nM.

For `Cn1cc(C2CC2c2c(C(=O)O)cnn2-c2cccc(-c3cccc(C(=O)C4CCCCC4)c3)c2)nn1` (stereo not shown) [Example 243, 1-(3′-(Cyclohexanecarbonyl)-[1,1′-biphenyl]-3-yl)-5-(2-(1-methyl-1H-1,2,3-triazol-4-yl)cyclopropyl)-1H-pyrazole-4-carboxylic Acid], the EC50 in experiment [1] fell in the range of 100 to 1000 nM. The molecule also had an IC50 in experiment [2] of 10 to 100 nM.

On to `Cn1cc([C@@H]2C[C@H]2c2c(C(=O)O)cnn2-c2cccc(-c3cncc(OCC4CCCCC4)c3)c2)nn1` (racemic) [Example 246, 1-(3-(5-(Cyclohexylmethoxy)pyridin-3-yl)phenyl)-5-(trans-2-(1-methyl-1H-1,2,3-triazol-4-yl)cyclopropyl)-1H-pyrazole-4-carboxylic Acid], for which, in experiment [1], the EC50 lay within 1000 to 10000 nM. Moreover, the IC50 in experiment [2] fell in the range of 100 to 1000 nM.

Turning to `C[C@@H]1CCC[C@H](C)N1C(=O)c1cccc(-c2cccc(-n3ncc(C(=O)O)c3C3CC3)c2)c1F` [Example 21, 5-Cyclopropyl-1-(3-{3-[(2R,6S)-2,6-dimethylpiperidine-1-carbonyl]-2-fluorophenyl}phenyl)-1H-pyrazole-4-carboxylic Acid], in experiment [1], the EC50 lay in the range of 100 to 1000 nM. Moreover, the IC50 in experiment [2] fell in the range of 100 to 1000 nM.

Take `Cn1cc([C@H]2C[C@@H]2c2c(C(=O)O)cnn2-c2cccc(-c3cccc(OCc4cccc(-c5ccccc5)c4)c3)c2)nn1` (racemic) [Example 238, 1-(3′-([1,1′-Biphenyl]-3-ylmethoxy)-[1,1′-biphenyl]-3-yl)-5-((1,2- trans)-2-(1-methyl-1H-1,2,3-triazol-4-yl)cyclopropyl)-1H-pyrazole-4-carboxylic acid]: the EC50 in experiment [1] was 100 to 1000 nM. Further, the half-inhibitory concentration (IC50) in experiment [2] lay within 100 to 1000 nM.

Take `CC(Oc1cccc(-c2cccc(-n3ncc(C(=O)O)c3[C@H]3C[C@@H]3c3cn(C)nn3)c2)c1)C1CCCCCC1` (mixture of isomers) [Example 230, 1-(3′-(1-Cycloheptylethoxy)-[1,1′-biphenyl]-3-yl)-5-((1,2-trans)-2-(1-methyl-1H-1,2,3-triazol-4-yl)cyclopropyl)-1H-pyrazole-4-carboxylic acid]: the EC50 in experiment [1] is 1 to 10 nM. The molecule also displayed an IC50 in experiment [2] of 10 to 100 nM.

With `Cn1cc(C2CC2c2c(C(=O)O)cnn2-c2cccc(-c3cccc(OC4CCCN(C(=O)OC(C)(C)C)C4)c3)c2)nn1` (stereo not shown) [Example 232, 1-(3′-((1-(tert-Butoxycarbonyl)piperidin-3-yl)oxy)-[1,1′-biphenyl]-3-yl)-5-(2-(1-methyl-1H-1,2,3-triazol-4-yl)cyclopropyl)-1H-pyrazole-4-carboxylic acid], in experiment [1], the EC50 was 100 to 1000 nM. In experiment [2], this molecule showed an IC50 of 10 to 100 nM.

`Cn1cc(C2CC2c2c(C(=O)O)cnn2-c2cccc(-c3cccc(OCc4ccccc4)c3)c2)nn1` (stereo not shown) [Example 221]: the EC50 in experiment [1] fell in the range of 100 to 1000 nM. In experiment [2], this molecule showed a 50% inhibitory concentration (IC50) of 100 to 1000 nM.

Consider `O=C(O)c1cnn(-c2cccc(-c3cccc(C(=O)N(CC4CCCC4)CC4CC4)c3F)c2)c1C1CC1` [Example 14, 1-(3-{3-[(Cyclopentylmethyl)(cyclopropylmethyl)carbamoyl]-2-fluorophenyl}phenyl)-5-cyclopropyl-1H-pyrazole-4-carboxylic Acid], for which, in experiment [1], the EC50 lay in the range of 100 to 1000 nM. For the same molecule, the IC50 in experiment [2] lay within 10 to 100 nM.

`CCCC1CCCCN1C(=O)c1cccc(-c2cccc(-n3ncc(C(=O)O)c3C3CC3c3cccnn3)c2)c1` (stereo not shown) [Example 41, 1-[3′-(2-Propyl-piperidine-1-carbonyl)-biphenyl-3-yl]-5-(2-pyridazin-3-yl-cyclopropyl)-1H-pyrazole-4-carboxylic Acid]: in experiment [1] (BEAS-2B, 48 h), the EC50 is 1000 to 10000 nM. The molecule also gave an IC50 in experiment [2] of less than 10 nM.

As for `CC(Oc1cccc(-c2cccc(-n3ncc(C(=O)O)c3C3CC3c3cn(C)nn3)c2)c1)C1CCCC1` (stereo not shown) [Example 228, 1-(3′-(1-Cyclopentylethoxy)-[1,1′-biphenyl]-3-yl)-5-(2-(1-methyl-1H-1,2,3-triazol-4-yl)cyclopropyl)-1H-pyrazole-4-carboxylic acid], in experiment [1], the EC50 fell in the range of 1 to 10 nM. In experiment [2], this molecule yielded an IC50 of 10 to 100 nM.

Turning to `Cn1cc(C2CC2c2c(C(=O)O)cnn2-c2cccc(-c3cccc(-n4ncc5c4C(C)(C)CC5)c3)c2)nn1` (stereo not shown) [Example 212, 1-(3′-(6,6-Dimethyl-5,6-dihydrocyclopenta[c]pyrazol-1(4H)-yl)-[1,1′-biphenyl]-3-yl)-5-(2-(1-methyl-1H-1,2,3-triazol-4-yl)cyclopropyl)-1H-pyrazole-4-carboxylic Acid], in experiment [1], the EC50 was in the range of 100 to 1000 nM. In experiment [2], this molecule gave an IC50 of less than 10 nM.

As for `Cn1cc([C@@H]2C[C@H]2c2c(C(=O)O)cnn2-c2cccc(-c3cccc(OCC4CCCCC4)c3F)c2)nn1` (racemic) [Example 152, 1-(3′-(Cyclohexylmethoxy)-2′-fluoro-[1,1′-biphenyl]-3-yl)-5-((1,2-trans)-2-(1-methyl-1H-1,2,3-triazol-4-yl)cyclopropyl)-1H-pyrazole-4-carboxylic Acid], the EC50 in experiment [1] lay in the range of 10 to 100 nM. The IC50 in experiment [2] was in the range of 10 to 100 nM.

For the molecule `CC(Oc1cccc(-c2cccc(-n3ncc(C(=O)O)c3[C@H]3C[C@@H]3c3cn(C)nn3)c2)c1)c1ccc(-c2ccccc2)cc1` (mixture of isomers) [Example 240, 1-(3′-(1-([1,1′-Biphenyl]-4-yl)ethoxy)-[1,1′-biphenyl]-3-yl)-5-((1,2- trans)-2-(1-methyl-1H-1,2,3-triazol-4-yl)cyclopropyl)-1H-pyrazole-4-carboxylic acid], the EC50 in experiment [1] lay within 100 to 1000 nM. The molecule further showed an IC50 in experiment [2] of 100 to 1000 nM.
